Source: US8425945B2, “Methods and compositions for regulating biofilm development” (NewSouth Innovations Pty Limited, priority 2005, dated 2013)

Key:
P. aeruginosa PAO1 = assay: Biofilm to planktonic transition on microscope slides in petri dishes with NO donors/scavenger; type: cell-based, Pseudomonas aeruginosa; conditions: for biofilm formation (percentage of surface coverage) / planktonic growth (OD600 nm of supernatant): NO donor 1 μM, 24 hours, lesser extent than SNP
S. marcescens biofilms = assay: Dispersal of biofilms on slides, surface coverage; type: cell-based, Serratia marcescens; conditions: SNAP 100 nM, 24 hours
Vibrio cholerae biofilms = assay: Dispersal of biofilms on slides, surface coverage; type: cell-based; conditions: 1 μM GSNO, 24 hours
P. aeruginosa biofilms = assay: Sensitivity of biofilms grown with SNP to antimicrobial agents; type: cell-based, Pseudomonas aeruginosa; conditions: tobramycin 100 μM, 30 minutes, with 500 nM SNP

| SMILES | biofilm formation (percentage of surface coverage) (P. aeruginosa PAO1) | planktonic growth (OD600 nm of supernatant) (P. aeruginosa PAO1) | further results |
| --- | --- | --- | --- |
| CC(=O)N[C@H](C(=O)O)C(C)(C)SN=O (racemic) [SNAP, S-nitroso-N-acetylpenicillamine] | decreases in biofilm formation | increases in planktonic growth | dispersal of biofilms (S. marcescens biofilms): effective for dispersal |
| N[C@@H](CCC(=O)N[C@@H](CSN=O)C(=O)NCC(=O)O)C(=O)O [GSNO, S-nitroso-L-glutathione] | decreases in biofilm formation | increases in planktonic growth | stability of biofilms (Vibrio cholerae biofilms): significant effect on stability |
| CC1(C)N([O])C(c2ccccc2)=[N+]([O-])C1(C)C [PTIO, 2-phenyl-4,4,5,5-tetramethyl-imidazoline-1-oxyl 3-oxide] | – | – | reduction of the SNP effect in both planktonic and biofilm phenotypes (P. aeruginosa PAO1; PTIO 1 mM in addition to SNP 500 nM): ≥ 40% |
| NC[C@H]1O[C@H](O[C@H]2[C@H](O)[C@@H](O[C@H]3O[C@H](CO)[C@@H](O)[C@H](N)[C@H]3O)[C@H](N)C[C@@H]2N)[C@H](N)C[C@@H]1O [tobramycin] | – | – | antimicrobial giving the highest effect in combination with SNP (P. aeruginosa biofilms): highest effect |
